This note sets out measurements from patent US20060014733A1, “Histamine-3 agonists and antagonists” (Pfizer Inc, priority 2004, published 2006).

T1 sequence (Q9QYN8 whole entry): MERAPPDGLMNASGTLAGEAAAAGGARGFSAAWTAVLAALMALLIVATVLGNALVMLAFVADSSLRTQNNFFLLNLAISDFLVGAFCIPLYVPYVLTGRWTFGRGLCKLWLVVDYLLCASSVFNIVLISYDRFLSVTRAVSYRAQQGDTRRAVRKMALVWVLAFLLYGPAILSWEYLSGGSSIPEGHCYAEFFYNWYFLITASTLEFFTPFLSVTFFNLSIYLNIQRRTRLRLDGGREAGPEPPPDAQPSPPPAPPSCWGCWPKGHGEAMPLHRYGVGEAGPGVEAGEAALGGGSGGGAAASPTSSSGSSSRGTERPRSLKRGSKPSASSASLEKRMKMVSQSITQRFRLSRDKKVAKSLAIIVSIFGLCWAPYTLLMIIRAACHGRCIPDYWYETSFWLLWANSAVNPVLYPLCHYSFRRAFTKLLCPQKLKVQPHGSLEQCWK

The test concerns the target T1, rat histamine H3 receptors (Rattus norvegicus, UniProt Q9QYN8).
T1 construct: Frozen rat frontal brain or frozen human post-mortem frontal brain is homogenized; from tissue; host or cells: rat frontal brain membranes
As to the kind of experiment: Rat H3 binding (3H-N-methylhistamine displacement, rat frontal brain membranes). The settings on record: radioligand 1 nM 3H-N-methylhistamine, 1 hour incubation. The protocol:
The in vitro affinity of the compounds in the present invention at the rat or human histamine H3 receptors can be determined according to the following procedure. Frozen rat frontal brain or frozen human post-mortem frontal brain is homogenized in 20 volumes of cold 50 mM Tris HCl containing 2 mM MgCl2 (pH to 7.4 at 4 degrees C.). The homogenate is then centrifuged at 45,000 G for 10 minutes. The supernatant is decanted and the membrane pellet re-suspended by Polytron in cold 50 mM Tris HCl containing 2 mM MgCl2 (pH to 7.4 at 4 degrees C.) and centrifuged again. The final pellet is re-suspended in 50 mM Tris HCl containing 2 mM MgCl2 (pH to 7.4 at 25 degrees C.) at a concentration of 12 mg/mL. Dilutions of compounds are made in 10% DMSO/50 mM Tris buffer (pH 7.4) (at 10×final concentration, so that the final DMSO concentration is 1%). Incubations are initiated by the addition of membranes (200 microliters) to 96 well V-bottom polypropylene plates containing 25 microliters of drug dilutions and 25 microliters of radioligand (1 nM final concentration ^3H-N-methylhistamine). After a 1 hour incubation, assay samples are rapidly filtered through Whatman GF/B filters and rinsed with ice-cold 50 mM Tris buffer (pH 7.4) using a Skatron cell harvester. Radioactivity is quantified using a BetaPlate scintillation counter.
As a reminder, the Ki is a dissociation constant, usually derived from enzyme kinetics or from competition with a known ligand. Low values mean a stronger hold on the target, high ones a looser hold on the target. For the compound `CN(C)[C@H]1CCN(Cc2ccc(-c3ccc(S(C)(=O)=O)cc3)cc2)C1` [Example 42, (S)-[1-(4′-Methanesulfonyl-biphenyl-4-ylmethyl)-pyrrolidin-3-yl]-dimethylamine], the Ki worked out at 55 nM.
For `CN(C)[C@@H]1CCN(Cc2ccc(-c3ccc(S(C)(=O)=O)cc3)cc2)C1` [Example 43, (R)-[1-(4′-Methanesulfonyl-biphenyl-4-ylmethyl)-pyrrolidin-3-yl]-dimethylamine] the value was 72 nM; for `CC(=O)Nc1cccc(-c2ccc(CN3CC[C@H](N(C)C)C3)cc2)c1` [Example 44, (S)-N-[4′-(3-Dimethylamino-pyrrolidin-1-ylmethyl)-biphenyl-3-yl]-acetamide], 139 nM.
For `CC(=O)Nc1cccc(-c2ccc(CN3CC[C@@H](N(C)C)C3)cc2)c1` [Example 45, (R)-N-[4′-(3-Dimethylamino-pyrrolidin-1-ylmethyl)-biphenyl-3-yl]-acetamide] the value was 75 nM; for `CN(C)[C@@H]1CCN(Cc2ccc(C3CCNCC3)cc2)C1` [Example 46, (R)-[1-(4-piperidin-4-ylbenzyl)-pyrrolidin-3-yl]-dimethylamine], 136 nM; for `CN(C)[C@H]1CCN(Cc2ccc(C3CCNCC3)cc2)C1` [Example 47], 33 nM.
